The values below come from US20230355649A1, “FORMULATIONS OF ANTI-VIRAL COMPOUNDS” (priority 2020, published 2023).

As a reminder, the solubility is the concentration that dissolves in the medium under given conditions.

Values after ≈ are worked out from the molar mass of the structure shown. Read-outs that look alike come from different tables or passages of the source.

The conditions of data set [1]: in vivo, cited from earlier work.
Data set [2] has as its system SARS-CoV-2 infected cell lines. Conditions: shown in the literature; cited from earlier work.
The conditions of data set [3]: not told; cited from earlier work.
On the set-up of data set [4]: species or system Dog (Canis familiaris)/Beagle. The conditions noted are these: dog, in vivo. From the text:
For both IV or oral (PO) administered doses, blood samples were collected to determine the presence of analytes in PBMCs. Further details are detailed in Table 14. [table]

On the set-up of data set [5]: species or system Dog (Canis familiaris)/Beagle. The conditions noted are these: male, beagle, dog, in vivo, 20 mg/kg. How it is done: An in vivo dog study in beagles was carried out to determine the pharmacokinetic (PK) profile of Remdesivir following 1) a single intravenous (IV) infusion of a control formulation and 2) an oral (PO) dose of an Example pharmaceutical composition ES040-72 according to the present invention.
For both IV or oral (PO) administered doses, plasma samples were collected over a period of 48 hours. Further details of the plasma collection are detailed in Table 13.

The test system of another data set is human hepatocytes. The experiment in a line: In vitro metabolism study of Remdesivir with human hepatocytes. The data set is classed as in vitro ADME. The procedure:
The Relative abundance (%) of metabolites post-incubation of Remdesivir (10 μM) was determined after culture with human hepatocytes (1.3 million cells/mL).
Samples were analysed by ultra-high performance liquid chromatography tandem mass spectrometry (UHPLC-MS/MS) with a quadrople time of flight mass spectrometer, for acquisition of high-resolution accurate mass data, with electrospray ionization incorporating in-line UV detection with a photodiode array detector.

Data set [6] is classed as physicochemical. The procedure:
In order to determine the stability of the prodrug Remdesivir at different pH, the stability of prodrug Remdesivir was tested over time at physiologically relevant pH of gastrointestinal media. The degradation of Remdesivir was determined by measuring the amount of unchanged Remdesivir using a suitable high pressure liquid chromatographic (HPLC) method and comparing the results against a pure reference sample of Remdesivir.

The conditions of data set [7]: in vivo, iv; cited from earlier work.
Data set [8] in a line: Dissolution and solubility study, Type II dissolution apparatus. The data set is classed as physicochemical. Conditions: drug substance powder in hard-gelatin capsule without excipients; 15 mg in 300 mL 0.4% Tween 80 in water, 100 rpm. How it is done: The solubility and/or dissolution of Remdesivir over time was determined for various pharmaceutical compositions using a Type II dissolution apparatus. The dissolution of the liquid formulation filled into hard-gelatin capsule and “as-is”, i.e. without being filled into the capsule shell were compared to the release of the non-formulated powder drug substance filled into the capsule, as well as the latter in combination with the solubilizing complexing agent, SBEβCD. The dissolution profiles were compared to that of acetaminophen drug substance filled into a hard-gelatin capsule. Acetaminophen has over 80% bioavailability in practice. […] At appropriate time intervals, about 1 mL aliquots of the dissolution media were withdrawn, filtered and tested using a high-pressure chromatographic assay method for Remdesivir. The area under the peak for the drug at the standard elution time was then compared against that of an external reference standard of Remdesivir to determine the concentration of dissolved Remdesivir at any given time.
Specifically, the Example formulation 1 (ES040-36) comprising Remdesivir was tested both as a solution added directly into the dissolution medium without being filled into a capsule shell to represent the release from an oral solution and also as filled into a hard-gelatin capsule. […]

Data set [9] can be described thus: physchem. In kind it is physicochemical. From the text: The solubility of Remdesivir was screened in a range of different acids to test the effect of pH and acidity on Remdesivir solubility.
Data set [10] is described as follows: Remdesivir solubility in co-solvents. The data set is classed as physicochemical.
A short description of data set [11]: physchem. Conditions: aqueous with cosolvent or surfactant or cyclodextrin, read-out: Remdesivir Solubility. In kind it is physicochemical.

For `CC(=O)Nc1ccc(O)cc1` [Acetaminophen, acetaminophen], the bioavailability result in [1] is “over 80%”.
As for `N#C[C@@]1(c2ccc3c(N)ncnn23)O[C@H](CO)[C@@H](O)[C@H]1O` [GS-441524], the oral bioavailability result in data set [1] (po) was “poor oral bioavailability”. For the same compound, the “in vitro activity against SARS-CoV-2 infected cell lines” value in data set [2] is reported as “considerable in vitro activity”. Further, the “permeability through the intestinal membrane” value in data set [3] was “poor permeability”. Besides, the “detection in PBMC cells” value in data set [4] is recorded as “detected”. Moreover, the AUCinf worked out at 22000 ± 1950 ng·h/mL in [5] (iv) and 21700 ± 2170 ng·h/mL in data set [5] (po). Further, the AUClast was 19800 ± 2510 ng·h/mL in [5] (iv) and 21500 ± 2100 ng·h/mL in data set [5] (po).
Turning to `C[C@H](NP(=O)(O)OC[C@H]1O[C@@](C#N)(c2ccc3c(N)ncnn23)[C@H](O)[C@@H]1O)C(=O)O` [GS-704277], the “Relative abundance of analytes post-incubation with Remdesivir” value is 0.0% in the data set on human hepatocytes (2 h, Remdesivir 10 μM, human hepatocytes 1.3 million cells/mL); 2.4% in the data set on human hepatocytes (6 h, Remdesivir 10 μM, human hepatocytes 1.3 million cells/mL); 2.2% with human hepatocytes (24 h, Remdesivir 10 μM, human hepatocytes 1.3 million cells/mL).
On to `CCC(CC)COC(=O)[C@H](C)N[P@](=O)(OC[C@H]1O[C@@](C#N)(c2ccc3c(N)ncnn23)[C@H](O)[C@@H]1O)Oc1ccccc1` [Remdesivir], for which the “Relative abundance of analytes post-incubation with Remdesivir” value came out at 4.8% in the data set with human hepatocytes (human, 2 h, 10 μM); 0.1% in the data set with human hepatocytes (human, 6 h, 10 μM); 0.7% in the data set with human hepatocytes (human, 24 h, 10 μM). The “stability / degradation of Remdesivir in solution” value in [6] was “acceptable stability and minimal degradation”. Moreover, in [7], the “plasma concentration relative to its own EC50” value is reported as “rapidly declines to well below its own EC50”. In addition, the “dissolution of Remdesivir” value in [8] is “very slow dissolution”. Further, the solubility in the data set “physchem [9]” (pH 0.5) is 1690 µg/mL (≈ 2800 µM); in the data set “physchem [9]” (pH 0.5, aqueous buffer, Solubility), 950 µg/mL (≈ 1580 µM); in the data set “physchem [9]” (pH 0.98, simulated gastric fluid, Solubility), 2490 µg/mL (≈ 4130 µM); in “physchem [9]” (pH 1, aqueous buffer, Solubility), 640 µg/mL (≈ 1060 µM); in “physchem [9]” (pH 1.38, simulated gastric fluid, Solubility) it was 980 µg/mL (≈ 1630 µM); in the data set “physchem [9]” (pH 1.89, simulated gastric fluid, Solubility), 340 µg/mL (≈ 564 µM). Moreover, the solubility in the data set “physchem [9]” (pH 2.91, aqueous buffer, Solubility) was determined as 5 µg/mL (≈ 8.3 µM); in the data set “physchem [9]” (pH 3.5, aqueous buffer, Solubility), 10 µg/mL (≈ 16.6 µM); in “physchem [9]” (pH 4.74, aqueous buffer, Solubility) it was 1 µg/mL (≈ 1.66 µM); in the data set “physchem [9]” (pH 6.18, aqueous buffer, Solubility), 0.9 µg/mL (≈ 1.49 µM); in “physchem [9]” (pH 6.72) it was 0 µg/mL; in data set [10] (oil or lipid, Solubility) it was 15900 µg/mL (≈ 26400 µM). In addition, the solubility in data set [10] (organic solvent or mixture, solvent Span 80, read-out: Solubility) was found to be 300 µg/mL (≈ 498 µM); in the data set “physchem [11]” (Kolliphor EL (Polyoxyl 35 Castor Oil, Cremophor) 0.10 % w/w in water), 20 µg/mL (≈ 33.2 µM); in “physchem [11]” (Poloxamer P407 0.07 % w/w in water), 6 µg/mL (≈ 9.96 µM); in “physchem [11]” (TWEEN 20 (Polysorbate 20) 0.16 % w/w in water) it was 16 µg/mL (≈ 26.6 µM); in “physchem [11]” (TWEEN 80 (Polysorbate 80) 0.30 % w/w in water) it was 33 µg/mL (≈ 54.8 µM).
